# Measurements from PubChem BioAssay AID1918996 (Molecular Pharmacology Branch, DTP, NCI, 2023).
# Test system: 349418-098-R-PDC complex spheroid growth
# Assay: Anticancer human tumor 349418-098-R-PDC patient-derived lung adenocarcinoma cell line growth inhibition [AhR]
# Conditions: for IC50: curve of first compound; for viability, T/C: stronger effect = lower value
# Method in brief: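 Agents were dosed in half-log steps down from roughly clinical Cmax, or from 10 microM where Cmax was unknown, alone and with AhR antagonists. Read-out: percent test/control growth of tumor spheroids containing HUVEC and MSC stromal cells.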
# [1] = second compound 0.1 µM, first compound 0.0316 µM
# [2] = second compound 0.1 µM, first compound 0.1 µM
# [3] = second compound 0.1 µM, first compound 0.316 µM
# [4] = second compound 0.1 µM, first compound 1 µM
# [5] = second compound 0.1 µM, first compound 3.16 µM
# [6] = second compound 0.1 µM, first compound 10 µM
# [7] = second compound 0.316 µM, first compound 0.0316 µM
# [8] = second compound 0.316 µM, first compound 0.1 µM
# [9] = second compound 0.316 µM, first compound 0.316 µM
# [10] = second compound 0.316 µM, first compound 1 µM
# [11] = second compound 0.316 µM, first compound 3.16 µM
# [12] = second compound 0.316 µM, first compound 10 µM
# [13] = second compound 1 µM, first compound 0.0316 µM
# [14] = second compound 1 µM, first compound 0.1 µM
# [15] = second compound 1 µM, first compound 0.316 µM
# [16] = second compound 1 µM, first compound 1 µM
# [17] = second compound 1 µM, first compound 3.16 µM
# [18] = second compound 1 µM, first compound 10 µM
# [19] = second compound 3.16 µM, first compound 0.0316 µM
# [20] = second compound 3.16 µM, first compound 0.1 µM
# [21] = second compound 3.16 µM, first compound 0.316 µM
# [22] = second compound 3.16 µM, first compound 1 µM
# [23] = second compound 3.16 µM, first compound 3.16 µM
# [24] = second compound 3.16 µM, first compound 10 µM
# [25] = second compound 10 µM, first compound 0.0316 µM
# [26] = second compound 10 µM, first compound 0.1 µM
# [27] = second compound 10 µM, first compound 0.316 µM
# [28] = second compound 10 µM, first compound 1 µM
# [29] = second compound 10 µM, first compound 3.16 µM
# [30] = second compound 10 µM, first compound 10 µM
# 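Also: spheroids exposed to agents for seven days before luminescence viability read.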
# 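For viability, T/C in this document: spheroids also contain HUVEC endothelial cells and human MSC stroma.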
IC50 (second compound 0.1 µM),IC50 (second compound 0.316 µM),IC50 (second compound 1 µM),IC50 (second compound 3.16 µM),IC50 (second compound 10 µM),SMILES,"viability, T/C [1]","viability, T/C [2]","viability, T/C [3]","viability, T/C [4]","viability, T/C [5]","viability, T/C [6]","viability, T/C [7]","viability, T/C [8]","viability, T/C [9]","viability, T/C [10]","viability, T/C [11]","viability, T/C [12]","viability, T/C [13]","viability, T/C [14]","viability, T/C [15]",also measured
1260 nM,999 nM,992 nM,1010 nM,919 nM,Nc1ccccc1NC(=O)c1ccc(CNC(=O)OCc2cccnc2)cc1 + Cc1ccccc1N=Nc1ccc(NC(=O)c2ccnn2C)c(C)c1,104%,97.7%,75.7%,64.6%,19.4%,5.78%,84.6%,85.3%,72%,52.1%,17.2%,5.9%,97.7%,76%,87.2%,"viability, T/C [16]: 47.6%; viability, T/C [17]: 18.5%; viability, T/C [18]: 6.58%; viability, T/C [19]: 86.5%; viability, T/C [20]: 82.5%; viability, T/C [21]: 76.5%; viability, T/C [22]: 50.1%; viability, T/C [23]: 18.5%; viability, T/C [24]: 5.98%; viability, T/C [25]: 66.4%; viability, T/C [26]: 60.9%; viability, T/C [27]: 68.1%; viability, T/C [28]: 48%; viability, T/C [29]: 17%; viability, T/C [30]: 8.83%"
772 nM,706 nM,597 nM,671 nM,331 nM,O=C(C=Cc1cccc(S(=O)(=O)Nc2ccccc2)c1)NO + Cc1ccccc1N=Nc1ccc(NC(=O)c2ccnn2C)c(C)c1,132%,119%,73%,47.6%,10.4%,1.93%,126%,108%,82.8%,36.1%,8.81%,1.91%,109%,122%,69.3%,"viability, T/C [16]: 33.3%; viability, T/C [17]: 8.25%; viability, T/C [18]: 2.09%; viability, T/C [19]: 94%; viability, T/C [20]: 94.1%; viability, T/C [21]: 78.3%; viability, T/C [22]: 34.7%; viability, T/C [23]: 8.53%; viability, T/C [24]: 2.35%; viability, T/C [25]: 74.7%; viability, T/C [26]: 72.5%; viability, T/C [27]: 50%; viability, T/C [28]: 22.9%; viability, T/C [29]: 8.56%; viability, T/C [30]: 2.05%"
2020 nM,6200 nM,2810 nM,661 nM,1430 nM,O=C(c1cc(Cc2n[nH]c(=O)c3ccccc23)ccc1F)N1CCN(C(=O)C2CC2)CC1 + Cc1ccccc1N=Nc1ccc(NC(=O)c2ccnn2C)c(C)c1,81.3%,73.2%,91.4%,62.1%,44.9%,39.6%,98%,89%,108%,64%,66.3%,41.4%,106%,82.4%,69.7%,"viability, T/C [16]: 62.8%; viability, T/C [17]: 49.4%; viability, T/C [18]: 39.9%; viability, T/C [19]: 76.9%; viability, T/C [20]: 69.9%; viability, T/C [21]: 63.4%; viability, T/C [22]: 41.8%; viability, T/C [23]: 41.3%; viability, T/C [24]: 43%; viability, T/C [25]: 56.4%; viability, T/C [26]: 53.1%; viability, T/C [27]: 50.9%; viability, T/C [28]: 60.1%; viability, T/C [29]: 38.8%; viability, T/C [30]: 31.4%"
